Source: patent US9790169B2, “IDO inhibitors” (BRISTOL-MYERS SQUIBB COMPANY, priority 2015, dated 2017)

What follows are molecules tested against human IDO1 (Homo sapiens, UniProt P14902) (assay: Assessment of human IDO-1 inhibitory activity in HEK cells (human IDO1/HEK293 cells, kynurenine read-out with Ehrlich reagent, absorbance 490 nm)). Conditions: HEK Human IDO-1 cellular assay.
Type: cell-based
Parameters: expressed in transfected cells
In short: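 Kynurenine output from stably IDO1-transfected HEK293 cells (10,000/well, phenol red-free RPMI, 10% FBS) after 20 h compound exposure at 37 °C. The reaction was stopped with 0.2% TCA and heated 30 min at 50 °C, then the supernatant was mixed with Ehrlich reagent and read at 490 nm. IC50 was set against DMSO and a 500 nM reference standard as 0 and 100% inhibition.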

human IDO1, sequence (P14902 whole entry): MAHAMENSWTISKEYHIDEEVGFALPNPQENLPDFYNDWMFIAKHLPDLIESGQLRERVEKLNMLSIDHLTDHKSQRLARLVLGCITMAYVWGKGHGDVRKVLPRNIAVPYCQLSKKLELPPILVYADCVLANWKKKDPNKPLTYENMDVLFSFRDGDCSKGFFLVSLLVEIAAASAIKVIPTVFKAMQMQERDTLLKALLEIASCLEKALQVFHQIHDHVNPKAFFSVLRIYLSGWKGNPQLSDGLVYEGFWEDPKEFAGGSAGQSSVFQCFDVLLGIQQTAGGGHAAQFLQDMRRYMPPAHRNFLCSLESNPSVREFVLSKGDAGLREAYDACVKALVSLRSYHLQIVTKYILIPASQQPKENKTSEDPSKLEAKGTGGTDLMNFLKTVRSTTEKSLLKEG

IC50 [µM]	SMILES
< 0.05	CCOc1ccc(NC(=O)Nc2cc(C(COC)CC(=O)O)cc(F)c2N(CC(C)C)CC(C)C)cc1 (single isomer, unassigned) [Example 1179, 3-(4-(Diisobutylamino)-3-(3-(4-ethoxyphenyl)ureido)-5-fluorophenyl)-4-methoxybutanoic acid]
< 0.005	COCC(CC(=O)O)c1cc(F)c(N(CC(C)C)CC(C)C)c(NC(=O)Cc2ccc(Cl)cc2F)c1 (single isomer, unassigned) [Example 1180, 3-(3-(2-(4-Chloro-2-fluorophenyl)acetamido)-4-(diisobutylamino)-5-fluorophenyl)-4-methoxybutanoic acid]
< 0.05	CCOc1ccc(CC(=O)Nc2cc(C(COC)CC(=O)O)cc(F)c2N(CC(C)C)CC(C)C)cc1 (single isomer, unassigned) [Example 1181, 3-(4-(Diisobutylamino)-3-(2-(4-ethoxyphenyl)acetamido)-5-fluorophenyl)-4-methoxybutanoic acid]
< 0.005	COCC(CC(=O)O)c1cc(F)c(N(CC(C)C)CC(C)C)c(NC(=O)Nc2ccc(Cl)cc2F)c1 (single isomer, unassigned) [Example 1182, 3-(3-(3-(4-Chloro-2-fluorophenyl)ureido)-4-(diisobutylamino)-5-fluorophenyl)-4-methoxybutanoic acid]
< 0.05	COCC(CC(=O)O)c1cc(F)c(N(CC(C)C)CC(C)C)c(NC(=O)Nc2cncnc2)c1 (single isomer, unassigned) [Example 1183, 3-(4-(Diisobutylamino)-3-fluoro-5-(3-(pyrimidin-5-yl)ureido)phenyl)-4-methoxybutanoic acid]
< 0.05	COCC(CC(=O)O)c1cc(F)c(N(CC(C)C)CC(C)C)c(NC(=O)Nc2cc(C)on2)c1 (single isomer, unassigned) [Example 1184, 3-(4-(Diisobutylamino)-3-fluoro-5-(3-(5-methylisoxazol-3-yl)ureido)phenyl)-4-methoxybutanoic acid]
< 0.005	COCC(CC(=O)O)c1cc(F)c(N(CC(C)C)CC(C)C)c(NC(=O)Nc2ccc(C)cc2)c1 (single isomer, unassigned) [Example 1186, 3-(4-(Diisobutylamino)-3-fluoro-5-(3-(p-tolyl)ureido)phenyl)-4-methoxybutanoic acid]
< 0.005	COCC(CC(=O)O)c1cc(F)c(N(CC(C)C)CC(C)C)c(NC(=O)Cc2ccc(C)cc2)c1 (single isomer, unassigned) [Example 1190, 3-(4-(Diisobutylamino)-3-fluoro-5-(2-(p-tolyl)acetamido)phenyl)-4-methoxybutanoic acid]
< 0.005	CCOc1ccc(NC(=O)Nc2cc(C(COC)CC(=O)O)cc(F)c2N(CC(C)C)CC(C)C)c(F)c1 (single isomer, unassigned) [Example 1191, 3-(4-(Diisobutylamino)-3-(3-(4-ethoxy-2-fluorophenyl)ureido)-5-fluorophenyl)-4-methoxybutanoic acid]
< 0.05	COCC(CC(=O)O)c1cc(F)c(N(CC(C)C)CC(C)C)c(NC(=O)Nc2ccc(OC(F)(F)F)cc2)c1 (single isomer, unassigned) [Example 1192, 3-(4-(Diisobutylamino)-3-fluoro-5-(3-(4-(trifluoromethoxy)phenyl)ureido)phenyl)-4-methoxybutanoic acid]
< 0.05	COCC(CC(=O)O)c1cc(F)c(N(CC(C)C)CC(C)C)c(NC(=O)Nc2ccc(C)cc2)c1 (single isomer, unassigned) [Example 1194, 3-(4-(Diisobutylamino)-3-fluoro-5-(3-(p-tolyl)ureido)phenyl)-4-methoxybutanoic acid]
> 0.05	COCC(CC(=O)O)c1cc(F)c(N(CC(C)C)CC(C)C)c(NC(=O)Nc2cncnc2)c1 (single isomer, unassigned) [Example 1196, 3-(4-(Diisobutylamino)-3-fluoro-5-(3-(pyrimidin-5-yl)ureido)phenyl)-4-methoxybutanoic acid]
< 0.005	CC(C)CN(c1ccc(C(CC(=O)O)C2CC2)cc1NC(=O)Nc1ccc(Cl)cc1F)C1CCOCC1 (single isomer, unassigned) [Example 1199 Enantiomer 1, 3-(3-(3-(4-Chloro-2-fluorophenyl)ureido)-4-(isobutyl(tetrahydro-2H-pyran-4-yl)amino)phenyl)-3-cyclopropylpropanoic acid]
< 0.05	Cc1cc(NC(=O)Nc2cc(C(CC(=O)O)C3CC3)ccc2N(CC(C)C)C2CCOCC2)no1 (single isomer, unassigned) [Example 1201 Enantiomer 1, 3-Cyclopropyl-3-(4-(isobutyl(tetrahydro-2H-pyran-4-yl)amino)-3-(3-(5-methylisoxazol-3-yl)ureido)phenyl)propanoic acid]
< 0.05	CCOc1ccc(NC(=O)Nc2cc(C(CC(=O)O)C3CC3)ccc2N(CC(C)C)C2CCOCC2)cc1 (single isomer, unassigned) [Example 1205 Enantiomer 1, 3-Cyclopropyl-3-(3-(3-(4-ethoxyphenyl)ureido)-4-(isobutyl(tetrahydro-2H-pyran-4-yl)amino)phenyl)propanoic acid]
> 0.05	CC(C)CN(c1ccc(C(CC(=O)O)C2CC2)cc1NC(=O)Nc1cncnc1)C1CCOCC1 (single isomer, unassigned) [Example 1207 Enantiomer 1, 3-Cyclopropyl-3-(4-(isobutyl(tetrahydro-2H-pyran-4-yl)amino)-3-(3-(pyrimidin-5-yl)ureido)phenyl)propanoic acid]
> 0.05	COCC(CC(=O)O)c1ccc(N(CC(C)C)C2CCOCC2)c(NC(=O)Nc2ccc(C)cc2)c1 (single isomer, unassigned) [Example 1209, 3-(4-(Isobutyl(tetrahydro-2H-pyran-4-yl)amino)-3-(3-(p-tolyl)ureido)phenyl)-4-methoxybutanoic acid]
< 0.05	COCC(CC(=O)O)c1ccc(N(CC(C)C)C2CCOCC2)c(NC(=O)Nc2ccc(Cl)cc2F)c1 (single isomer, unassigned) [Example 1210, 3-(3-(3-(4-Chloro-2-fluorophenyl)ureido)-4-(isobutyl(tetrahydro-2H-pyran-4-yl)amino)phenyl)-4-methoxybutanoic acid]
> 0.05	COCC(CC(=O)O)c1ccc(N(CC(C)C)C2CCOCC2)c(NC(=O)Nc2ccc(OC(F)(F)F)cc2)c1 (single isomer, unassigned) [Example 1211, 3-(4-(Isobutyl(tetrahydro-2H-pyran-4-yl)amino)-3-(3-(4-(trifluoromethoxy)phenyl)ureido)phenyl)-4-methoxybutanoic acid]
> 0.05	CCOc1ccc(NC(=O)Nc2cc(C(COC)CC(=O)O)ccc2N(CC(C)C)C2CCOCC2)cc1 (single isomer, unassigned) [Example 1212, 3-(3-(3-(4-Ethoxyphenyl)ureido)-4-(isobutyl(tetrahydro-2H-pyran-4-yl)amino)phenyl)-4-methoxybutanoic acid]
> 0.05	COCC(CC(=O)O)c1ccc(N(CC(C)C)C2CCOCC2)c(NC(=O)Nc2cc(C)on2)c1 (single isomer, unassigned) [Example 1213, 3-(4-(Isobutyl(tetrahydro-2H-pyran-4-yl)amino)-3-(3-(5-methylisoxazol-3-yl)ureido)phenyl)-4-methoxybutanoic acid]
> 0.05	COCC(CC(=O)O)c1ccc(N(CC(C)C)C2CCOCC2)c(NC(=O)Nc2ccc(OC)cc2F)c1 (single isomer, unassigned) [Example 1214, 3-(3-(3-(2-Fluoro-4-methoxyphenyl)ureido)-4-(isobutyl(tetrahydro-2H-pyran-4-yl)amino)phenyl)-4-methoxybutanoic acid]
> 0.05	CCOc1ccc(NC(=O)Nc2cc(C(COC)CC(=O)O)ccc2N(CC(C)C)C2CCOCC2)c(F)c1 (single isomer, unassigned) [Example 1215, 3-(3-(3-(4-Ethoxy-2-fluorophenyl)ureido)-4-(isobutyl(tetrahydro-2H-pyran-4-yl)amino)phenyl)-4-methoxybutanoic acid]
< 0.05	COCC(CC(=O)O)c1ccc(N(CC(C)C)C2CCOCC2)c(NC(=O)Nc2ccc(C)cc2)c1 (single isomer, unassigned) [Example 1216, 3-(4-(Isobutyl(tetrahydro-2H-pyran-4-yl)amino)-3-(3-(p-tolyl)ureido)phenyl)-4-methoxybutanoic acid]
< 0.005	COCC(CC(=O)O)c1ccc(N(CC(C)C)C2CCOCC2)c(NC(=O)Nc2ccc(Cl)cc2F)c1 (single isomer, unassigned) [Example 1217, 3-(3-(3-(4-Chloro-2-fluorophenyl)ureido)-4-(isobutyl(tetrahydro-2H-pyran-4-yl)amino)phenyl)-4-methoxybutanoic acid]
< 0.05	COCC(CC(=O)O)c1ccc(N(CC(C)C)C2CCOCC2)c(NC(=O)Nc2ccc(OC)cc2F)c1 (single isomer, unassigned) [Example 1221, 3-(3-(3-(2-Fluoro-4-methoxyphenyl)ureido)-4-(isobutyl(tetrahydro-2H-pyran-4-yl)amino)phenyl)-4-methoxybutanoic]
< 0.05	CCOc1ccc(NC(=O)Nc2cc(C(COC)CC(=O)O)ccc2N(CC(C)C)C2CCOCC2)c(F)c1 (single isomer, unassigned) [Example 1222, 3-(3-(3-(4-Ethoxy-2-fluorophenyl)ureido)-4-(isobutyl(tetrahydro-2H-pyran-4-yl)amino)phenyl)-4-methoxybutanoic acid]
< 0.05	CCOc1ccc(NC(=O)Nc2cc(C(COC)CC(=O)O)ccc2N(CC(C)C)C2CCCCC2)cc1 (single isomer, unassigned) [Example 1231, 3-(4-(Cyclohexyl(isobutyl)amino)-3-(3-(4-ethoxyphenyl)ureido)phenyl)-4-methoxybutanoic acid]
< 0.05	CCOc1ccc(NC(=O)Nc2cc(C(COC)CC(=O)O)ccc2N(CC(C)C)C2CCCCC2)c(F)c1 (single isomer, unassigned) [Example 1232, 3-(4-(Cyclohexyl(isobutyl)amino)-3-(3-(4-ethoxy-2-fluorophenyl)ureido)phenyl)-4-methoxybutanoic acid]
